Results reported in patent US20040002444A1, “Polyphosphate-water soluble collagen complexes and process for preparation thereof” (Toshikazu SHIBA, priority 2002, published 2004).

Experiments:
[1] = system: alveolar bone of rats (artificial periodontal pockets); assay: Regeneration of the periodontal tissue in rats (Example 3); format: in vivo, Wister male rats; settings: approx. 0.1 ml injected into gingival crevices everyday, up to 3 weeks; light microscope
Description: Next, to confirm the effect of the prepared polyphosphate-collagen complex in regenerating the periodontal tissue, an experiment for the regeneration of the periodontal tissue was performed using rats. Wister male rats (8 weeks old; 18 rats in total) were anesthetized. Then, using a ½ round bar, approximately 2 mm portions were removed from the buccal alveolar bone crest of the mandibular first and second molars, and artificial periodontal pockets (gingival crevices) were formed. In the treated group (9 rats), approximately 0.1 ml of the polyphosphate-collagen complexes prepared in Example 2 was injected using a syringe into the thus formed gingival crevices. In the comparison group (9 rats), only the collagen was injected. The injection procedure was performed everyday from the day following the operation to prepare the gingival crevice, and continued for 3 weeks at the longest.
The rats treated for a certain period were euthanized by inhalation anesthesia (enflurane), and the tissues were fixed by perfusion fixation. Perfusion fixation was performed by letting 300 ml of physiological saline and then 10% neutral buffered formalin solution (pH 7.4, 500 ml) to flow through the blood vessel. […] In addition, the area of the regenerated alveolar bone was measured as the area of bone formation by calculating the sum of the bone areas in the sections with image processing.

[2] = system: alveolar bone of rats (artificial periodontal pockets); assay: Regeneration of the periodontal tissue in rats, influence of polyphosphate chain length (Example 4); format: in vivo, Wister male rats; settings: measured at 15 days after operation; for area of the regenerated alveolar bone: approx. 0.1 ml injected into gingival crevices once a day for 14 days
Description: Next, an experiment of the regeneration of the periodontal tissue in rats was performed using the 3 prepared types of polyphosphate-collagen complexes. In a manner similar to Example 3, Wister male rats (8 weeks old) were anesthetized. Then, using a ½ round bar, approximately 2 mm portions were removed from the buccal alveolar bone crest of the mandibular first and second molars, and artificial periodontal pockets (gingival crevices) were formed. In the treated group, approximately 0.1 ml of either one type of the above polyphosphate-collagen complexes was injected using a syringe into the thus formed gingival crevices. The treated groups were: treated group 1 that was treated with the polyphosphate-collagen complex containing polyphosphates having an average chain length of 15; treated group 2 that was treated with the polyphosphate-collagen complex containing polyphosphates having an average chain length of 35; and treated group 3 that was treated with the polyphosphate-collagen complex containing polyphosphates having an average chain length of 75. The comparison groups were: comparison group 1 that was treated only with collagen and comparison group 2 that was treated with a mixed solution of a sodium phosphate buffer and collagen. Injection (approximately 0.1 ml) into the gingival crevices of each group was performed similarly to that for the treated groups. For all the groups, 3 rats were used per group. In addition, the injection was performed once a day and everyday from the day following the operation to prepare the gingival crevice, and was continued for 14 days.
After the above treatment, at 15 days after the operation to prepare the gingival crevice, tissue sections (samples) were prepared in a manner similar to that in Example 3 from the rats of each group, and then the area of the formed alveolar bone was measured. The areas of the regenerated alveolar bones as measured for rat individuals included in 3 treated groups and 2 comparison groups are as shown in Table 1.

## collagen [Comparison group 1]
[1]
  staining of the tissues: regeneration of alveolar bone (FIG. 2): no increase was observed in the alveolar bone
[2]; Individual 1
  area of the regenerated alveolar bone: 0.5422 mm^2
[2]; Individual 2
  area of the regenerated alveolar bone: 0.5909 mm^2
[2]; Individual 3
  area of the regenerated alveolar bone: 0.6569 mm^2
[2]; average of 3 rats per group, approx. 0.1 ml injected once a day for 14 days
  area of the regenerated alveolar bone, Average: 0.5967 mm^2
